Results on 5 compounds are retold here after paper PMC4971072, “Chemically Homogenous Compounds with Antagonistic Properties at All α1-Adrenoceptor Subtypes but not β1-Adrenoceptor Attenuate Adrenaline-Induced Arrhythmia in Rats” (Frontiers in Pharmacology, 2016).

Each structure is given as a SMILES string. Where two headings read alike, the source gives them in different places. Marks after values point to notes of the source that are not given here.

Series [1] has as its system adrenaline-induced arrhythmia in rats. The series is described as follows: Prophylactic antiarrhythmic activity in adrenaline-induced arrhythmia. The series is classed as in vivo, rat. The procedure: The studied compounds were administered i.p. 45 min before the injection of adrenaline, calcium chloride, or barium chloride. The electrocardiogram (ECG) was recorded during the first 2 min as well as in the 5th, 10th, and 15th min after the arrhythmogen injection. […]

In series [2] the target is α1-adrenoceptor. The settings on record: ref Pönicke et al. (2002); read-out: Adrenergic receptors Ki α1; cited from earlier work.
Series [3] concerns lipid peroxidation in rat brain homogenate. Nature of the series: Lipid peroxidation in rat brain homogenate (TBARS), antioxidant effect. The series is classed as biochemical. Particulars: 10^−3 M. As to the method:
The rat brain homogenate containing 10 mg tissue/ml was prepared in 0.9% saline. The rates of membrane lipid peroxidation were measured by the formation of thiobarbituric acid reactive substances (TBARS). Rat brain homogenates (1 ml) were incubated at 37°C for 5 min with 10 μl of a tested compound or vehicle. Lipid peroxidation was initiated by the addition of 50 μl of 0.5 mM FeCl2 and 50 μl of 2.0 mM ascorbic acid. After 30 min of incubation, the reaction was stopped by adding 0.1 ml of 0.2% butylated hydroxytoluene (BHT). Thiobarbituric acid reagent was then added and the mixture was heated for 15 min in a boiling water bath.

The test system of another series is α1B−adrenoceptor. On the set-up: method as in Koshimizu et al. (2004). Particulars: ref Koshimizu et al. (2004); cited from earlier work.
A further series relates to α1A−adrenoceptor subtype. On the set-up: method as in Koshimizu et al. (2004). The settings on record: ref Koshimizu et al. (2004); cited from earlier work.
Series [4] concerns the target α1-adrenoceptor. The series is described as follows: α1-adrenoceptor radioligand binding assay ([3H]-prazosin, rat cerebral cortex). The settings on record: read-out: Adrenergic receptors Ki α1. As to the method:
The α1- and β1-adrenoceptor radioligand binding assay was performed on rat cerebral cortex. […] The cell pellet was resuspended in the Tris–HCl buffer and centrifuged again. Radioligand binding assays were performed in plates (MultiScreen/Millipore). […] The incubation was terminated by rapid filtration through glass fiber filters (Whatman GF/C) using a vacuum manifold (Millipore). The filters were then washed twice with the assay buffer and placed in scintillation vials with a liquid scintillation cocktail. […] All the assays were made in duplicate and the inhibitory constants (Ki) were estimated.
LO–labeled ligand concentration, KD–dissociation constant of labeled ligand

For the next series, the target named is T1, α1A-adrenoceptors (Rattus norvegicus, UniProt P43140).
T1 construct: the middle part of the ventral caudal artery was removed; from tissue; host or cells: isolated rat tail (ventral caudal) artery rings
T1 sequence (P43140 1-466): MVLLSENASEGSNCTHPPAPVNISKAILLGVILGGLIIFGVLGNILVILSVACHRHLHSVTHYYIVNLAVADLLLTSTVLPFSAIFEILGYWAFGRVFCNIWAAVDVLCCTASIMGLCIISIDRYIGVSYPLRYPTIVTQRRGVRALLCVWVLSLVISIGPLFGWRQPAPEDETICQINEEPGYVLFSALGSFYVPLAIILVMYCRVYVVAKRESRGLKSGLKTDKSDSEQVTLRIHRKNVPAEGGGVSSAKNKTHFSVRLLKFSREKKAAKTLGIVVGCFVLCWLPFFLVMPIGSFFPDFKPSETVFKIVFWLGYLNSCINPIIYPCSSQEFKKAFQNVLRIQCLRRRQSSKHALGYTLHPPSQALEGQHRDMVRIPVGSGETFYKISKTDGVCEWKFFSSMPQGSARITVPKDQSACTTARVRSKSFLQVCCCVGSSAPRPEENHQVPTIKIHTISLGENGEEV
Particulars: rat tail artery, cited from earlier work.

Another series concerns the target T2, α1B-adrenoceptors (Mus musculus, UniProt P97717).
T2 construct: The spleen was removed from male mice; from tissue; host or cells: isolated mouse spleen
T2 sequence (P97717 1-514): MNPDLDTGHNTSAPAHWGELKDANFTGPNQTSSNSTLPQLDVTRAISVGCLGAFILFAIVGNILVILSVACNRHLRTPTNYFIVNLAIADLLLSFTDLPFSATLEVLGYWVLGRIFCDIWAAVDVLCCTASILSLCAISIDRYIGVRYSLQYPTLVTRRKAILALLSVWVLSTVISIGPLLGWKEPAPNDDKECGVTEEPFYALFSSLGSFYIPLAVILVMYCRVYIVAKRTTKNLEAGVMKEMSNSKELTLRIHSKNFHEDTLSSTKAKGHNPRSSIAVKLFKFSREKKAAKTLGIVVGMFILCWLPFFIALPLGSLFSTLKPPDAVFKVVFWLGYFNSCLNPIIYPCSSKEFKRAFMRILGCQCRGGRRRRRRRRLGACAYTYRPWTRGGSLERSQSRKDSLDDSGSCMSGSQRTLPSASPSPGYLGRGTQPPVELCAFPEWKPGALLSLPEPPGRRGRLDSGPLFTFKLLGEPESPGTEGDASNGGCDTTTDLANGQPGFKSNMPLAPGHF
The settings on record: mouse spleen, cited from earlier work.

A further series has as its target T3, α1D-adrenoreceptors (Rattus norvegicus, UniProt P23944).
T3 sequence (P23944 1-561): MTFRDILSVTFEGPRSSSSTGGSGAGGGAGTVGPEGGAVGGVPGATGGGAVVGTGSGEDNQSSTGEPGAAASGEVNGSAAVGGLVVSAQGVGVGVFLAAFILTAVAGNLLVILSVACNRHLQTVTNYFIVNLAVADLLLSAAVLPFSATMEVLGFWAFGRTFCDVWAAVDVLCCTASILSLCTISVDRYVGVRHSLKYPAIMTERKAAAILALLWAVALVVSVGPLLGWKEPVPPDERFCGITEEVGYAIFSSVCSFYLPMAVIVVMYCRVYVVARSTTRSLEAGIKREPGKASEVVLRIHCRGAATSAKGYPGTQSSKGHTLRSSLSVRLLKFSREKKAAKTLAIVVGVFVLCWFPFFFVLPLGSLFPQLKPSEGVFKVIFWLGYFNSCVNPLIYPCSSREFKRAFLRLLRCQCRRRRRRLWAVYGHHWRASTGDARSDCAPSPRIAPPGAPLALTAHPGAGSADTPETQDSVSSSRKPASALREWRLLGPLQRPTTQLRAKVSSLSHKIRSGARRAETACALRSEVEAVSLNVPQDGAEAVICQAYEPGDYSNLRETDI
The settings on record: rat aorta; ref Eltze (1996); cited from earlier work.

Setting [5] is: adrenaline 20 μg/kg i.v. alone (arrhythmia control).

`CNC[C@H](O)c1ccc(O)c(O)c1` [Adrenaline, adrenaline]: in series [1] (setting [5]), the “Bigeminy (%)” value was determined as 33.3%, the “Blocks (%)” value worked out at 50.0% and the “Bradycardia (%)” value stood at 66.7%.

For the compound `COc1ccccc1OCCNCC(O)COc1cccc2[nH]c3ccccc3c12` (stereo not shown) [Carvedilol, carvedilol, reference compound], the Ki at α1-adrenoceptor [2] is […]. For the same compound, the “inhibition of lipid peroxidation (in words)” value in [3] is on record as “inhibited lipid peroxidation”. In [3] (TBARs at 532 nm), the “% reduction of absorbance (% antioxidant activity)” value came to 89.58% and the Absorbance came to 0.094 ± 0.002. Further, in the series on α1B−adrenoceptor, the “pA2 value for α1B−adrenoceptor” value is listed as 10.0. In the series with α1A−adrenoceptor subtype, the “pA2 value for α1A−adrenoceptor subtype” value is 9.0. Also, the ED50 in series [1] (Rattus norvegicus, read-out: ED50 (confidence limits)) stood at 0.36 mg/kg.

As for `Cc1ccc(N(CC2=NCCN2)c2cccc(O)c2)cc1` [Phentolamine, phentolamine, reference compound], the Ki at α1-adrenoceptor [4] turned out to be 18.3 nM.

As for `COc1cc2nc(N3CCN(C(=O)c4ccco4)CC3)nc(N)c2cc1OC` [Prazosin, prazosin], the “pA2 ± S.E.M., α1A” value at α1A-adrenoceptors (ref Parés-Hipólito et al. (2006)) is 8.93 ± 0.03^a. Further, the “pA2 ± S.E.M., α1B” value at α1B-adrenoceptors (ref Eltze (1996)) was 9.07 ± 0.09^b. In addition, the “pA2 ± S.E.M., α1D” value on α1D-adrenoreceptors is recorded as 8.85 ± 0.09^b.

As to `CCOc1ccccc1OCCN[C@H](C)Cc1ccc(OC)c(S(N)(=O)=O)c1` [Tamsulosin], the “pA2 ± S.E.M., α1A” value at α1A-adrenoceptors (ref Jähnichen et al. (2004)) is on record as 10.32 ± 0.05^c. In addition, the “pA2 ± S.E.M., α1B” value on α1B-adrenoceptors (ref Eltze et al. (1999)) is given as 8.33 ± 0.08^d.
